Measurements taken from patent US8524661B2, “Inhibiting serum response factor (SRF) to improve glycemic control” (Joslin Diabetes Center, Inc., priority 2008, dated 2013).
Entries after “also recorded” stand apart in the source; their conditions may differ. Values belong to the compound of their own block, whether it stands above or below them.

Tests used:
[1] = tested on: STARS; experiment: STARS expression in C2C12 myotubes after actin disruption; type: cell-based; conditions: p<0.03, not shown
Description: Additional pathway analysis using MAPPFinder confirmed that serum response factor (SRF)-dependent and actin-related cytoskeleton gene expression is increased in diabetes, and more importantly, also in insulin resistance. The top-ranking single gene differentially expressed in skeletal muscle in the fasting state is the Actin-binding Rho activating protein (ABRA), or STARS, increased by 2.5 fold in individuals with type 2 diabetes (p<0.01). This gene regulates intracellular actin dynamics and subcellular localization of MKL1/2, thus contributing to SRF-dependent gene transcription. Since disruption of actin by latrunculin B increases STARS expression in C2C12 cells by 50% in C2C12 myotubes (p<0.03, not shown), it was hypothesize that increased STARS expression in DM may reflect disruption of actin dynamics and also contribute to the pattern of increased SRF-related gene expression. Similar patterns of SRF-dependent expression are also observed in adipose tissue from insulin resistant subjects and in insulin resistant muscle.

[2] = tested on: SRF transcriptional activity; experiment: SRF transcriptional activity, 4x CArG (SRE) promoter luciferase reporter in C2C12 cells; type: cell-based
Description: To determine whether SRF transcriptional activity is also changed in insulin resistance, 4× tandem repeat of SRF binding element (SRE) CArG boxes (Kuwahara et al., Mol. Cell Biol. 25:3173-3181 (2005)) promoters linked to a luciferase gene were used as a reporter.

[3] = tested on: SRF; experiment: Low density DNA binding arrays, SRF DNA binding activity; type: cell-based; conditions: C2C12 myotubes
Protocol: To explore the above possibility, DNA binding activity of SRF and it co-factor ELK1 to the target gene promoter was first evaluated. To this end, electrophoretic mobility shift assays (EMSA) were performed. […] In support to this idea, in low density DNA binding arrays, SRF DNA binding activity was dramatically (5-10 fold, respectively) increased in primary myotubes from insulin resistant human and free fatty acid (FFA)-treated C2C12 myotubes compared to control.

[4] = tested on: MKL1-dependent and -independent SRF pathways; experiment: Gene set enrichment of SRF pathways in C2C12 myotubes; type: cell-based; conditions: compared with control BSA treated cells
[5] = tested on: Akt; experiment: Akt phosphorylation in myotubes (phosphoimmunoblot); type: cell-based; conditions: for increase of insulin-stimulated Akt phosphorylation: C2C12 myotubes
Protocol: (§1) siRNA was used to specifically reduce MKL1 expression, achieving an effective knockdown of about 60%. This increased insulin-stimulated phosphorylation of Akt (Ser473), expressed relative to total Akt protein content, by 2-fold (p<0.01). […] Thus, siRNA-mediated reduction in MKL1 expression enhances both basal and insulin-stimulated glucose uptake in cultured myotubes.
The next experiments were performed to determine whether SRF transcriptional activity, rather than expression of SRF itself, is important for maintaining appropriate insulin sensitivity. A new compound, CCG-1423, is available for specifically inhibiting SRF transcriptional activity (Evelyn et al., Mol. Cancer. Ther. 6:2249-2260 (2007)). […] CCG-1423 was then evaluated to test the possibility that reducing SRF transcriptional activity improves insulin sensitivity. Indeed, this is the case. A dramatic improvement in insulin sensitivity resulted from treatment with CCG-1423 in dexamethasone-induced insulin resistant myotubes, as CCG-1423 increased insulin-simulated Akt phosphorylation (a marker of insulin sensitivity) (FIG. 11A).
(§2) In parallel, CCG-1423 enhanced insulin action in C2C12 myotubes. Overnight treatment with 1 μM CCG-1423 increased insulin-stimulated Akt phosphorylation, both in the presence and absence of dexamethasone (41% for both, p=0.01 and p=0.007, respectively), while having no effect on p42/44 ERK phosphorylation (FIG. 11C).

[6] = tested on: p42/44 ERK; experiment: ERK phosphorylation in C2C12 myotubes (phosphoimmunoblot); type: cell-based; conditions: overnight 1 μM CCG-1423, FIG. 11C
Protocol: as §2

[7] = tested on: IRS-1; experiment: IR / IRS-1 tyrosine phosphorylation and p85 PI 3-kinase association in myotubes; type: cell-based
Description: FIG. 11D is a phosphoimmunoblot showing that CCG-1423 increases basal and insulin-stimulated tyrosine phosphorylation of IRS-1 and its association with p85-PI 3-kinase, in both control and DEX-treated myotubes. * indicates p<0.05, **p<0.01, ***p<0.001.
(§3) The molecular mechanism of the ability of CCG-1423 to reverse insulin resistance was further explored. The insulin—insulin receptor (1R)—insulin receptor substrate (IRS-1) pathway is the dominant up-stream signalling activator of Akt.
as §2

[8] = tested on: MKL1; experiment: MKL1 cellular localization in C2C12 myoblasts; type: cell-based
[9] = tested on: C2C12 myotubes; experiment: Deoxyglucose uptake in cultured (C2C12) myotubes; type: cell-based; conditions: FIG. 11E
Description: as §1
(§4) Since CCG-1423 increased insulin signalling in myotubes, we hypothesized that CCG-1423 might also enhance glucose uptake. In DMSO (vehicle)-treated myotubes, insulin stimulated a 2-fold increase in deoxyglucose uptake in a dose-dependent manner, consistent with prior reports and the low insulin responsiveness in cultured myotubes (FIG. 11E). […] In parallel, expression of the dominant glucose transporters GLUT4 and GLUT1 was increased by CCG-1423 treatment by 4.1 and 2.5 fold, respectively (p<0.004).

[10] = tested on: L6 myotubes; experiment: 2-deoxyglucose uptake in L6 myotubes; type: cell-based; conditions: CCG-1423 1 uM, 16 hours, FIG. 11E
Protocol: FIG. 11E is a line graph showing that both basal and insulin-stimulated 2-deoxyglucose uptake are increased by >4-fold in L6 myotubes following CCG-1423, with enhanced insulin sensitivity (1 uM, 16 hours). * indicates p<0.05, **p<0.01, ***p<0.001.

[11] = tested on: human myotubes; experiment: Basal glucose uptake in human myotubes from control and diabetic subjects; type: cell-based
Protocol: The effects of CCG-1423 on human myotubes, and whether these effects would differ in myotubes derived from controls (n=2) vs. diabetic subjects (n=6), were also evaluated. […] The differential responsiveness in subjects with DM supports the concept that SRF pathways are more robustly activated in humans with insulin resistance and DM, and therefore potentially more sensitive to SRF inhibition.

[12] = tested on: GLUT4; experiment: GLUT4 expression in myotubes; type: cell-based; conditions: CCG-1423 treatment, p<0.004
Description: as §4

[13] = tested on: GLUT1; experiment: GLUT1 expression in myotubes; type: cell-based; conditions: CCG-1423 treatment, p<0.004
Description: as §4

[14] = tested on: mice with diet-induced obesity; experiment: CCG-1423 treatment of mice with diet-induced obesity (HFD); type: in vivo
Protocol: To examine the therapeutic potential of this SRF inhibitor in vivo, we assessed responses to CCG-1423 treatment in mice with diet-induced obesity. […] The HFD mice were administered CCG-1423 (0.15 mg/kg body weight intraperitoneally) for two weeks.
In parallel, the high insulin levels associated with insulin resistance were normalized by CCG-1423 treatment (FIG. 13C).

[15] = tested on: SRF target gene expression; experiment: SRF target gene expression in CCG-1423 treated cells; type: cell-based; conditions: basal or insulin stimulated state
Description: as §3

SMILES: C/C1=C/C(=O)O[C@@H]2C[C@@H](CC[C@H](C)/C=C\CC1)O[C@@](O)([C@@H]1CSC(=O)N1)C2 [latrunculin B]
increase of STARS expression [1]: 50%

increase of SRF DNA binding activity compared to control [3]: 5-10 fold
SMILES: CCCCCCCCCCCCCCCC(=O)O [FFA]
SRF transcriptional activity at basal level ([2]; C2C12 myotubes, experimentally induced insulin resistance, FIG. 4): dramatically increased
enrichment of MKL1-dependent and -independent SRF pathways [4]: significant enrichment

SMILES: CC(ONC(=O)c1cc(C(F)(F)F)cc(C(F)(F)F)c1)C(=O)Nc1ccc(Cl)cc1 (stereo not shown) [CCG-1423]
SRF-mediated transcriptional activity (4x CArG / SRE promoter activity) ([2]; C2C12 myoblasts, serum (FBS 2 hours) or dexamethasone stimulation, CCG-1423 1 uM, 16 hours pre-treatment, FIG. 11B): efficiently blocked
SRF transcriptional activity induced by serum, dexamethasone, and insulin ([2]; C2C12 myotubes, FIG. 10): specifically block; also recorded: inhibits
increase of insulin-stimulated Akt phosphorylation ([5]; overnight 1 μM CCG-1423, absence of dexamethasone, p=0.007): 41%
increase of insulin-stimulated Akt phosphorylation ([5]; overnight 1 μM CCG-1423, presence of dexamethasone, p=0.01): 41%
insulin-stimulated Akt phosphorylation (marker of insulin sensitivity) ([5]; dexamethasone-induced insulin resistant myotubes, FIG. 11A): increased; also recorded: improves
insulin-stimulated Akt phosphorylation ([5]; insulin 100 nM, 10 minutes, FIG. 11C): increases
p42/44 ERK phosphorylation [6]: no effect; also recorded: minimal change
p85 expression ([7]; C2C12 myotubes): without altering
basal and insulin-stimulated tyrosine phosphorylation of IRS-1 and its association with p85 PI 3-kinase ([7]; control and DEX-treated myotubes, FIG. 11D): increases
phosphorylation of IR and IRS-1 protein ([7]; with insulin stimulation): massive phosphorylation
MKL1 localization ([8]; compound alone): almost exclusively localized to the cytoplasm
MKL1 localization, effect on dexamethasone-induced nuclear localization ([8]; with dexamethasone): reversed dexamethasone-induced MKL1 nuclear localization to partial cytoplasmic localization
insulin-stimulated deoxyglucose uptake response ([9]; myotubes incubated with CCG-1423, 1 uM insulin): 11.5 fold
glucose uptake increase in the basal state ([9]; myotubes incubated with CCG-1423): 4 fold
basal and insulin-stimulated 2-deoxyglucose uptake increase [10]: > 4 fold
basal increase in glucose uptake (mean) ([11]; myotubes from control subjects (n=2)): 1.2 fold
basal increase in glucose uptake (mean) ([11]; myotubes from diabetic subjects (n=6)): 3.2 fold
GLUT4 expression increase [12]: 4.1 fold
GLUT1 expression increase [13]: 2.5 fold
serum insulin levels during glucose tolerance test ([14]; 15 minutes after glucose injection, HFD+CCG vs vehicle-treated HFD, FIG. 13C): normalized; also recorded: significantly reduced
expression of SRF or ELK1 ([14]; HFD mice, 0.15 mg/kg intraperitoneally, two weeks): did not alter
expression of SRF targets in skeletal muscle, e.g., ZYX and PDLIM7 ([14]; HFD mice, 0.15 mg/kg intraperitoneally, two weeks, vs vehicle-injected controls): significantly decreased
food intake ([14]; HFD mice, 0.15 mg/kg intraperitoneally, two weeks, vs vehicle-treated HFD mice): No significant change
body weight ([14]; HFD mice, 0.15 mg/kg intraperitoneally, two weeks, vs vehicle-treated HFD mice, FIG. 12, 0.15 mg/kg): No significant change; also recorded: not altered
glucose tolerance test area under the curve (AUC) ([14]; HFD+CCG vs vehicle-treated HFD animals, FIG. 13B, p<0.006): significantly reduced
adiponectin levels ([14]; HFD-fed mice): No differences
circulating fatty acid levels ([14]; HFD-fed mice): No differences
insulin tolerance testing ([14]; HFD-fed mice): No differences
in vivo glucose tolerance (intra peritoneal glucose tolerance test) ([14]; HFD-fed mice vs HFD-fed vehicle-treated controls, FIG. 13A): significantly improved; also recorded: improves
SRF target gene expression [15]: does not induces
